Key:
Mus musculus = test: Intravenous administration of dose required to prevent clonic seizures and tonic extension seizure of forelimbs and hindlimbs; format: functional; settings: Hindlimb
[1] = Electrophysiology tested by the voltage clamp assay using superior cervical ganglion potassium neuron (SCGK); format: functional, tissue-based; settings: Rattus norvegicus
[2] = Electrophysiology tested by the voltage clamp assay using superior cervical ganglion sodium neuron (SCGNa); format: functional, tissue-based; settings: Rattus norvegicus
[3] = Intravenous administration of dose resulting in 50% reduction in the number of writhes in male CF-1 mice.; format: functional; settings: Mus musculus
[4] = biological target: Voltage-gated L-type calcium channel (Rattus norvegicus, UniProt P22002+Q02485+P27732); test: L-type calcium channel blockade in A10 smooth muscle cells by Oregon Green 488 Bapta-1 dye; format: functional, cell-based
Rattus norvegicus [5] = organism: Rattus norvegicus; test: Intrathecal bolus injection of 12.5-100 microg of dose resulting in 50% reduction in the amount of foot withdraw responding to repeated mechanical stimuli
[6] = Electrophysiology tested by the voltage clamp assay using superior cervical ganglion calcium neuron (SCGCa); format: functional, tissue-based; settings: Rattus norvegicus
Rattus norvegicus [7] = test: Oral administration of dose resulting in 50% reduction in the number of flinches per minute
Rattus norvegicus [8] = test: Dose given at 15 and 30 mg/kg over 10 min resulting in 50% reduction in the number of flinches per minute when administarted intravenously.; settings: iv

CN[C@@H](CC(C)C)C(=O)NCCCC(c1ccc(F)cc1)c1ccc(F)cc1.Cl
ED50 (Mus musculus): 4.05 mg/kg | IC50 [1]: 9.9 µM | IC50 [2]: 5.1 µM | ED50 [3]: 4.46 mg/kg | IC50 [4]: 0.4 µM | ED50 (Rattus norvegicus [5]): 23 µg | IC50 [6]: 1.3 µM | ED50 (Rattus norvegicus [7]): 87 mg/kg | ED50 (Rattus norvegicus [8]): 16 mg/kg
